Test systems include SK-MEL-28 melanoma; DMS 273 small cell lung; EKVX NSCLC; UACC-62 melanoma; A549 NSCLC; UACC-257 melanoma; HCT-15 colon; SF-268 CNS; RPMI-8226 leukemia; CAKI-1 renal.
Common to all, as to experiment: NCI anticancer screen, dose series, 48 h

Where “and” joins values, the source holds several entries; their conditions need not be identical. Equal entries are not always repeated.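 48-hour exposure; five concentrations; linearly interpolated endpoints. GI50: concentration for 50% inhibition of growth. TGI denotes the concentration required for complete inhibition of growth.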

On to `Nc1nc(SCc2ccc([N+](=O)[O-])cc2)nc2c1ncn2C1OC(COP(=O)(O)O)C(O)C1O` (configuration not stated), for which the TGI in the assay with SK-MEL-28 melanoma, with DMS 273 small cell lung, with EKVX NSCLC, in the assay with UACC-62 melanoma, with A549 NSCLC and in the assay on UACC-257 melanoma was above 100 µM in each case. Also, the TGI in the assay with HCT-15 colon and in the assay with SF-268 CNS was above 100 µM in each case.
For `CC(NC(=O)C(C)NC(=O)C(N)CCP(C)(=O)O)C(=O)O` (configuration not stated), the TGI with SK-MEL-28 melanoma, with DMS 273 small cell lung, in the assay on EKVX NSCLC, in the assay on RPMI-8226 leukemia, in the assay with UACC-62 melanoma and in the assay with A549 NSCLC was above 100 µM each time. Further, the TGI in the assay with UACC-257 melanoma, in the assay with HCT-15 colon, in the assay with CAKI-1 renal and with SF-268 CNS was above 100 µM throughout.
In the case of `C[Si](C)(OCCS(=O)(=O)O)C1(Cc2cccc3ccccc23)S(=O)(=O)OCCOS1(=O)=O`, the TGI turned out to be 37 µM in the assay on SK-MEL-28 melanoma; 32.3 µM with EKVX NSCLC; 57 µM in the assay with RPMI-8226 leukemia; 43 µM in the assay with UACC-62 melanoma; 65.2 µM in the assay on A549 NSCLC; 80.1 µM in the assay with UACC-257 melanoma. For the same compound, the TGI in the assay on HCT-15 colon turned out to be 52.1 µM; in the assay on CAKI-1 renal, 31.4 µM; in the assay with SF-268 CNS it was 79.5 µM.
For the compound `Cc1ccc(N2Cc3c(ccc4ccccc34)OP2(=O)Oc2ccc(Cl)c(C)c2)cc1` (configuration not stated), the TGI in the assay with SK-MEL-28 melanoma is above 100 µM; with DMS 273 small cell lung, above 100 µM; with EKVX NSCLC, above 100 µM; in the assay on RPMI-8226 leukemia, above 22.3 µM; in the assay on UACC-62 melanoma, above 100 µM; with A549 NSCLC, above 100 µM. Also, the TGI in the assay on UACC-257 melanoma, in the assay with HCT-15 colon, in the assay with CAKI-1 renal and in the assay with SF-268 CNS was above 100 µM each time.
With `CC(C)OP(=O)(OC(C)C)/C(I)=N/Nc1ccc([N+](=O)[O-])cc1`, the TGI with SK-MEL-28 melanoma, in the assay on DMS 273 small cell lung, with EKVX NSCLC, in the assay with RPMI-8226 leukemia, with UACC-62 melanoma and in the assay with A549 NSCLC was above 100 µM in each case. The TGI in the assay on UACC-257 melanoma, in the assay on HCT-15 colon, in the assay on CAKI-1 renal and with SF-268 CNS was above 100 µM in each case.
`Cc1ccc(N=N/C(=N\NC(=O)c2ccc(C)cc2)c2ccc(N(CCC#N)CCC#N)cc2C)cc1`: the TGI in the assay with SK-MEL-28 melanoma is 52.5 µM; in the assay with EKVX NSCLC it was above 100 µM; in the assay with RPMI-8226 leukemia, above 100 µM; with UACC-62 melanoma it was 56.7 µM; with A549 NSCLC it was above 100 µM; in the assay on UACC-257 melanoma, above 100 µM. The TGI with HCT-15 colon, in the assay on CAKI-1 renal and in the assay with SF-268 CNS was above 100 µM in each case.
On to `N[C@H](C(=O)O)[C@H]1ON=C(Cl)[C@@H]1O`, for which the GI50 in the assay on SK-MEL-28 melanoma was 28.4 µM; in the assay on EKVX NSCLC, 11.2 µM; in the assay on RPMI-8226 leukemia it was 10.9 µM; with UACC-62 melanoma it was 17.5 µM; with A549 NSCLC it was 3.79 µM; with UACC-257 melanoma, above 51.1 µM. Also, the GI50 with HCT-15 colon was 3.95 µM; with CAKI-1 renal, 4.06 µM; with SF-268 CNS it was 5.1 µM. Also, the TGI with SK-MEL-28 melanoma was above 550 µM; in the assay with DMS 273 small cell lung it was above 550 µM; in the assay with EKVX NSCLC, above 550 µM; with RPMI-8226 leukemia it was > 97.1 µM and 233 µM; in the assay with UACC-62 melanoma, above 550 µM; in the assay with A549 NSCLC it was above 550 µM. Moreover, the TGI with UACC-257 melanoma is above 550 µM; in the assay on HCT-15 colon, above 550 µM; with CAKI-1 renal it was 205 µM; with SF-268 CNS, above 550 µM.
For the compound `COc1ccc(-n2cnnc2-c2nsc3ccccc23)cc1`, the TGI in the assay with SK-MEL-28 melanoma, in the assay with DMS 273 small cell lung, with EKVX NSCLC, with RPMI-8226 leukemia, with UACC-62 melanoma and in the assay on A549 NSCLC was above 100 µM throughout. Besides, the TGI in the assay on UACC-257 melanoma, with HCT-15 colon and in the assay on SF-268 CNS was above 100 µM each time.
As to `CC1=Nc2nc(Cl)cn2C(=O)C1(Cl)Cl`, the TGI in the assay with SK-MEL-28 melanoma, with EKVX NSCLC, in the assay on RPMI-8226 leukemia, in the assay on UACC-62 melanoma, with A549 NSCLC and in the assay with HCT-15 colon was above 10 µM each time. The TGI in the assay on CAKI-1 renal and in the assay with SF-268 CNS was above 10 µM throughout.

Values taken from PubChem BioAssay (NCI).
